Consider one substance from patent US20180203025A1, “HDL THERAPY MARKERS” (Cerenis Therapeutics Holding SA, priority 2014, published 2018).

For data set [1], the system named is total plaque volume in a 30 mm segment of the target coronary artery. Description: CHI SQUARE phase II trial, IVUS first approach. Format: in vivo, human. The source says:
504 subjects presenting with acute chest pain or other angina equivalent symptoms, indicative of a diagnosis of ST segment elevation myocardial infarction, non-ST elevation myocardial infarction or unstable angina were enrolled. To be eligible, subjects must have angiographic evidence of coronary artery disease as defined by at least one lesion in any of the three major native coronary arteries that has >20% reduction in lumen diameter by angiographic visual estimation or prior history of percutaneous coronary intervention (“PCI”). The target vessel for PCI was not the target coronary artery for research IVUS, and any vessel with previous PCI could not be used as the target coronary artery.
The study design is illustrated in FIG. 1. The primary endpoint was the nominal change in total plaque volume in a 30 mm segment of the target coronary artery assessed by 3 dimensional IVUS (intra-vascular ultrasound). The key secondary endpoints were % change in plaque volume and change in % atheroma volume in the target 30 mm segment, the change in total vessel volume in the target 30 mm segment, and changes in plaque, lumen and total vessel volumes from baseline in the least and most diseased 5 mm segments. Morbidity and mortality were exploratory endpoints.
Mean total atheroma volume at baseline was 155.24±67.99 mm^3. The adjusted means for change in total atheroma volume were −2.71, −3.13, −1.50 and −3.05 mm^3 in the placebo, CER-001 3 mg/kg, CER-001 6 mg/kg and CER-001 12 mg/kg groups, respectively (p=0.81 for the prespecified primary analysis of 12 mg/kg versus placebo). There were also no differences compared to placebo for the CER-001 6 mg/kg (nominal p=0.45) and 3 mg/kg (nominal p=0.77) groups. The change in percent atheroma volume was similar among all study groups (0.02, −0.02, 0.01 and 0.19% in the placebo, CER-001 3 mg/kg (p=0.86), CER-001 6 mg/kg (p=0.95) and CER-001 12 mg/kg (p=0.53) groups (nominal p-values versus placebo).
In contrast to the “walk-along” approach discussed below, frame pairs were individually selected for optimum readability. Frames were selected based upon absence of echogenicity (calcium) and side branches. A maximum of 31 frames were selected over a 30 mm segment, excluding the benefit of pull-backs longer than 30 mm. No pre-defined criteria were used to select the 31 frames for inclusion in analysis set when >31 frames available.

Data set [2] has as its system diet-induced atherosclerosis in LDL receptor knock-out mice. The conditions noted are these: several infusions; cited from earlier work.
Data set [3] deals with ligatured carotid from apoE−/− mice. In words: Cholesterol content of ligatured left carotids, apoE−/− mice on high fat diet. The data set is classed as in vivo, mouse. The conditions noted are these: 8 injections. The method, then:
The formulation was injected in the retro-orbital vein (50 μL/mouse) of mice anaesthetized with isoflurane, once every 2 days for 8 injections. The dose administered was based on the mean of mice bodyweight in each cage. The compounds were injected at 10 AM every day. For blood sampling, mice fasted overnight were sampled once at the indicated dose: (1) at predose (at 9 AM) by retro-orbital withdrawal: 24 hours before the first injection/day of surgery; (2) at postdose (at 9 AM) by retro-orbital withdrawal: 24 hours after the last injection; and (3) at t=0 (9 AM) and the indicated time points after the 5th injection by caudal withdrawal. Immediately after collection, blood samples were kept at ca. +4° C. to avoid alteration of the blood sample. Blood specimens were centrifuged (800×g for 10 minutes at +4° C.) and plasma was saved for future analysis.
This study examined the effect of CER-001 administration on plaque progression in ligatured carotid from apoE^−/− mice fed with a high fat diet. For each group of mice, the cholesterol content of the carotid was tested after lipid extraction and HPLC analysis. The ligatured carotids were collected the day of sacrifice and stored at −80° C. The lipids were extracted with an organic solution and the cholesterol concentration was determined by HPLC.
Ligatured carotids were lipid extracted according to the method of Section 9.2.9. The surgical straps were removed from the carotid (fresh weight) and the tissue was introduced in a glass tube. To this was added 1.8 mL of CHCl3/MeOH (2:1) and mixed overnight at 4° C. The carotid was then removed, dried and weighed and the organic solution (CHCl3/MeOH) was split in two glass tubes in equal volumes. For unesterified cholesterol (UC), 100 μL of β-sitosterol (internal standard) was added and the solution was dried. To this was added 200 μL EtOH for solubilisation of the sample and the sample was analyzed UC by HPLC. […] To this was added 200 μL EtOH for solubilisation of the sample and analysed TC by HPLC. The cholesterol concentration was determined by HPLC according to the method of Section 9.2.7. […]

A short description of data set [4]: Plasma human ApoA-I by ELISA in apoE−/− mice. Format: in vivo, mouse. The method, then: This study examined the kinetics of the CER-001 infusion by determining the concentration of human ApoA-I in the plasma after infusion of CER-001. The ApoA-I concentration in plasma was determined by ELISA (Assay Pro EA5201-1) following manufacturer instructions.
In data set [5] the test system is TAV and PAV of the target coronary artery. Description: CHI SQUARE IVUS post-hoc analysis by SAHMRI (second approach). Format: in vivo, human. The protocol:
A post-hoc analysis of the IVUS data was performed by the South Australian Health & Medical Research Institute (SAHMRI).
In this case there were similar frame-counts between baseline and follow-up. The number of frames selected were normally distributed (FIG. 3).

The mark [6] stands for this setting: baseline PAV equal to or greater than 30, mITT, 3 mg/kg (n = 58).
Setting [7] is: baseline PAV equal to or greater than 30, mITT, 6 mg/kg (n = 78).
Setting [8] is: baseline PAV equal to or greater than 30, mITT, 12 mg/kg (n = 66).

In the case of “CER-001: engineered recombinant human apolipoprotein A-I HDL with sphingomyelin and DPPG; protein-to-phospholipid ratio 1:2.7, 97% Sph and 3% DPPG”, the figures for the “adjusted mean change in total atheroma volume” value in data set [1] (3 mg/kg), in data set [1] (6 mg/kg) and in data set [1] (12 mg/kg) were −3.13 mm^3, −1.50 mm^3 and −3.05 mm^3, respectively. Also, the “change in percent atheroma volume” value in data set [1] (3 mg/kg) is reported as −0.02%; in data set [1] (6 mg/kg), 0.01%; in data set [1] (12 mg/kg), 0.19%. Moreover, the “vascular inflammation and atherosclerosis” value in data set [2] is “reduce vascular inflammation and promote regression of diet-induced atherosclerosis”. Besides, the “decrease in total cholesterol contents in ligatured carotids” value in data set [3] (2, 5 and 10 mg/kg) was 50%. Moreover, the “decrease in unesterified cholesterol in ligatured carotids” value in data set [3] (2, 5 and 10 mg/kg) was found to be 25%. In data set [3] (20 and 50 mg/kg), the “inhibition of plaque progression” value is recorded as “around 10%”. Further, in data set [4] (2-50 mg/kg), the “human ApoA-I plasma concentration” value is reported as “dose-dependent increase”. Further, the “human plasma ApoA-I relative to expected doses” value in data set [4] (mouse, in vivo) was “expected doses of ApoA-I in plasma were retrieved”. Further, the “change in TAV and PAV versus placebo” value in data set [5] (baseline PAV equal to or greater than 30, mITT, 3 mg/kg) was “obtained statistical significance versus placebo”. For the same substance, the “PAV LS mean change (ANCOVA)” value in data set [5] (setting [6]) is reported as −0.963; in data set [5] (setting [7]) it was −0.619; in data set [5] (setting [8]) it was “+0.177”. For the same substance, the “TAV LS mean change (ANCOVA)” value in data set [5] (setting [6]) is −6.258; in data set [5] (setting [7]), −3.429; in data set [5] (setting [8]), −2.726. Moreover, the “shape of dose-effect curve” value in data set [5] (humans, 3, 6, 12 mg/kg) is “inverted U-shaped dose-effect curve”. Also, the “reduction in PAV and TAV versus baseline” value in data set [5] (mITT population) was “statistically significant and comparable magnitude of reduction in PAV and TAV versus baseline”. Further, the “TAV and PAV versus placebo” value in data set [5] (mPP population, 3 mg/kg) is “did achieve nominal statistical significance versus placebo”.
